In US6355799B1, “Substituted benzene compounds, process for their preparation, and herbicidal and defoliant compositions containing them” (ISK Americas Incorporated, priority 1997, dated 2002):

Legend:
Type in all cases: in vivo
[1] = tested on: redroot pigweed (Amaranthus retroflexus, AMARE); test: Pre-emerge test, greenhouse herbicide activity screening; conditions: pre-emerge, rated 14 days after application, 0 = no damage, 100 = complete death
How it was run: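 Sandy loam pots; pre-emerge: sown 1 d pre-spray, surface-watered after, then bottom-watered. Post-emerge: sown 8–21 d before, 2–3 leaf stage, + 0.25% v/v NIS, bottom-watered. Acetone, 187 l/ha track spray, 15–1000 g ai/ha. 0–100 injury score, day 14.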

[2] = tested on: ivyleaf morningglory (Ipomoea hederacea, IPOHE); test: as above; conditions: pre-emerge, rated 14 days after application, 0 = no damage, 100 = complete death
How it was run: (§1)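 Visual ratings on a 0-100 scale (0 no damage, 100 all plants dead) were taken at 14 days after treatment. Rates of 15-1000 g ai/ha in acetone, 187 l/ha, were sprayed onto soil one day after planting (pre-emerge) or onto 2-3 leaf plants with 0.25% v/v surfactant (post-emerge).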

[3] = tested on: green foxtail (Setaria viridis, SETVI); test: as above; conditions: pre-emerge, rated 14 days after application, 0 = no damage, 100 = complete death
How it was run: as §1

[4] = tested on: sicklepod (Cassia obtusifolia, CASOB); test: as above; conditions: pre-emerge, rated 14 days after application, 0 = no damage, 100 = complete death
How it was run: as §1

[5] = tested on: barnyardgrass (Echinochloa crus-galli, ECHCG); test: as above; conditions: pre-emerge, rated 14 days after application, 0 = no damage, 100 = complete death
How it was run: as §1

[6] = tested on: common ragweed (Ambrosia artemisizfolia L., AMBEL); test: as above; conditions: pre-emerge, rated 14 days after application, 0 = no damage, 100 = complete death
How it was run: as §1

[7] = tested on: johnsongrass (Sorghum halepense, SORHA); test: as above; conditions: pre-emerge, rated 14 days after application, 0 = no damage, 100 = complete death
How it was run: as §1

[8] = tested on: large crabgrass (Digitaria sanguinalis, DIGSA); test: as above; conditions: pre-emerge, rated 14 days after application, 0 = no damage, 100 = complete death
How it was run: as §1

[9] = tested on: lambsquarters (Chenopodium album, CHEAL); test: as above; conditions: pre-emerge, rated 14 days after application, 0 = no damage, 100 = complete death
How it was run: as §1

[10] = tested on: velvetleaf (Abutilon theophrasti, ABUTH); test: as above; conditions: pre-emerge, rated 14 days after application, 0 = no damage, 100 = complete death
How it was run: as §1

[11] = tested on: field corn (Zea mays L., var. Dekalb 535, CORN); test: Pre-emerge test, crop safety; conditions: pre-emerge, rated 14 days after application, 0 = no damage, 100 = complete death
How it was run: (§2)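 Plants grown in 10 cm pots of sandy loam mix received acetone-dissolved compounds through a moving flat-fan nozzle. Doses ranged from 15 to 1000 g ai/ha. Pre-emerge pots were seeded one day earlier, post-emerge pots 8–21 days earlier. Fourteen days on, each pot was graded 0–100 for damage.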

[12] = tested on: upland rice (Oryza sp., var. Tebonnet, RICE); test: Pre-emerge test, crop safety; conditions: pre-emerge, rated 14 days after application, 0 = no damage, 100 = complete death
How it was run: as §2

[13] = tested on: ivyleaf morningglory (Ipomoea hederacea, IPOHE); test: Post-emerge test, greenhouse herbicide activity screening; conditions: phytotoxicity rating 0-100 (0 no damage, 100 complete death), 14 days after application
How it was run: as §1

[14] = tested on: green foxtail (Setaria viridis, SETVI); test: as above; conditions: phytotoxicity rating 0-100 (0 no damage, 100 complete death), 14 days after application
How it was run: as §1

[15] = tested on: sicklepod (Cassia obtusifolia, CASOB); test: as above; conditions: phytotoxicity rating 0-100 (0 no damage, 100 complete death), 14 days after application
How it was run: as §1

[16] = tested on: barnyardgrass (Echinochloa crus-galli, ECHCG); test: as above; conditions: phytotoxicity rating 0-100 (0 no damage, 100 complete death), 14 days after application
How it was run: as §1

[17] = tested on: common ragweed (Ambrosia artemisizfolia L., AMBEL); test: as above; conditions: phytotoxicity rating 0-100 (0 no damage, 100 complete death), 14 days after application
How it was run: as §1

[18] = tested on: johnsongrass (Sorghum halepense, SORHA); test: as above; conditions: phytotoxicity rating 0-100 (0 no damage, 100 complete death), 14 days after application
How it was run: as §1

[19] = tested on: redroot pigweed (Amaranthus retroflexus, AMARE); test: as above; conditions: phytotoxicity rating 0-100 (0 no damage, 100 complete death), 14 days after application
How it was run: as §1

[20] = tested on: large crabgrass (Digitaria sanguinalis, DIGSA); test: as above; conditions: phytotoxicity rating 0-100 (0 no damage, 100 complete death), 14 days after application
How it was run: as §1

[21] = tested on: lambsquarters (Chenopodium album, CHEAL); test: as above; conditions: phytotoxicity rating 0-100 (0 no damage, 100 complete death), 14 days after application
How it was run: as §1

[22] = tested on: velvetleaf (Abutilon theophrasti, ABUTH); test: as above; conditions: phytotoxicity rating 0-100 (0 no damage, 100 complete death), 14 days after application
How it was run: as §1

[23] = tested on: field corn (Zea mays L., var. Dekalb 535, CORN); test: Post-emerge test, crop safety; conditions: phytotoxicity rating 0-100 (0 no damage, 100 complete death), 14 days after application
How it was run: as §1

[24] = tested on: upland rice (Oryza sp., var. Tebonnet, RICE); test: Post-emerge test, crop safety; conditions: phytotoxicity rating 0-100 (0 no damage, 100 complete death), 14 days after application
How it was run: as §1

For `COc1c(Cl)cc(F)c(-n2c(=O)c(N)c(C(F)(F)F)n(C)c2=O)c1N` [Compound 1-10], the “Pre-emerge Herbicidal Activity AMARE (phytotoxicity rating, scale 0-100)” value ([1]; 63 g ai/ha) was 70, the “Pre-emerge Herbicidal Activity AMARE (phytotoxicity rating, scale 0-100)” value ([1]; 250 g ai/ha) was 100 and the “Pre-emerge Herbicidal Activity IPOHE (phytotoxicity rating, scale 0-100)” value ([2]; 63 g ai/ha) was 0. The “Pre-emerge Herbicidal Activity IPOHE (phytotoxicity rating, scale 0-100)” value ([2]; 250 g ai/ha) was 60, the “Pre-emerge Herbicidal Activity SETVI (phytotoxicity rating, scale 0-100)” value ([3]; 63 g ai/ha) was 0 and the “Pre-emerge Herbicidal Activity SETVI (phytotoxicity rating, scale 0-100)” value ([3]; 250 g ai/ha) was 100. The “Pre-emerge Herbicidal Activity CASOB (phytotoxicity rating, scale 0-100)” value ([4]; 63 g ai/ha) was 20, the “Pre-emerge Herbicidal Activity CASOB (phytotoxicity rating, scale 0-100)” value ([4]; 250 g ai/ha) was 50 and the “Pre-emerge Herbicidal Activity ECHCG (phytotoxicity rating, scale 0-100)” value ([5]; 63 g ai/ha) was 0. The “Pre-emerge Herbicidal Activity ECHCG (phytotoxicity rating, scale 0-100)” value ([5]; 250 g ai/ha) was 0, the “Pre-emerge Herbicidal Activity AMBEL (phytotoxicity rating, scale 0-100)” value ([6]; 63 g ai/ha) was 0 and the “Pre-emerge Herbicidal Activity AMBEL (phytotoxicity rating, scale 0-100)” value ([6]; 250 g ai/ha) was 60. The “Pre-emerge Herbicidal Activity SORHA (phytotoxicity rating, scale 0-100)” value ([7]; 63 g ai/ha) was 0, the “Pre-emerge Herbicidal Activity SORHA (phytotoxicity rating, scale 0-100)” value ([7]; 250 g ai/ha) was 0 and the “Pre-emerge Herbicidal Activity DIGSA (phytotoxicity rating, scale 0-100)” value ([8]; 63 g ai/ha) was 0. For the same compound, the “Pre-emerge Herbicidal Activity DIGSA (phytotoxicity rating, scale 0-100)” value ([8]; 250 g ai/ha) was 30, the “Pre-emerge Herbicidal Activity CHEAL (phytotoxicity rating, scale 0-100)” value ([9]; 63 g ai/ha) was 30 and the “Pre-emerge Herbicidal Activity CHEAL (phytotoxicity rating, scale 0-100)” value ([9]; 250 g ai/ha) was 100. For the same compound, the “Pre-emerge Herbicidal Activity ABUTH (phytotoxicity rating, scale 0-100)” value ([10]; 63 g ai/ha) was 100, the “Pre-emerge Herbicidal Activity ABUTH (phytotoxicity rating, scale 0-100)” value ([10]; 250 g ai/ha) was 100 and the “Pre-emerge crop damage CORN (phytotoxicity rating, scale 0-100)” value ([11]; 63 g ai/ha) was 0. The “Pre-emerge crop damage CORN (phytotoxicity rating, scale 0-100)” value ([11]; 250 g ai/ha) was 0, the “Pre-emerge crop damage RICE (phytotoxicity rating, scale 0-100)” value ([12]; 63 g ai/ha) was 0 and the “Pre-emerge crop damage RICE (phytotoxicity rating, scale 0-100)” value ([12]; 250 g ai/ha) was 0. The “Post-emerge Herbicidal Activity IPOHE” value ([13]; 63 g ai/ha) was 20, the “Post-emerge Herbicidal Activity IPOHE” value ([13]; 250 g ai/ha) was 70 and the “Post-emerge Herbicidal Activity SETVI” value ([14]; 63 g ai/ha) was 0. For the same compound, the “Post-emerge Herbicidal Activity SETVI” value ([14]; 250 g ai/ha) was 0, the “Post-emerge Herbicidal Activity CASOB” value ([15]; 63 g ai/ha) was 0 and the “Post-emerge Herbicidal Activity CASOB” value ([15]; 250 g ai/ha) was 10. The “Post-emerge Herbicidal Activity ECHCG” value ([16]; 63 g ai/ha) was 0, the “Post-emerge Herbicidal Activity ECHCG” value ([16]; 250 g ai/ha) was 0 and the “Post-emerge Herbicidal Activity AMBEL” value ([17]; 63 g ai/ha) was 0. For the same compound, the “Post-emerge Herbicidal Activity AMBEL” value ([17]; 250 g ai/ha) was 30, the “Post-emerge Herbicidal Activity SORHA” value ([18]; 63 g ai/ha) was 0 and the “Post-emerge Herbicidal Activity SORHA” value ([18]; 250 g ai/ha) was 0. The “Post-emerge Herbicidal Activity AMARE” value ([19]; 63 g ai/ha) was 10, the “Post-emerge Herbicidal Activity AMARE” value ([19]; 250 g ai/ha) was 30 and the “Post-emerge Herbicidal Activity DIGSA” value ([20]; 63 g ai/ha) was 0. For the same compound, the “Post-emerge Herbicidal Activity DIGSA” value ([20]; 250 g ai/ha) was 0, the “Post-emerge Herbicidal Activity CHEAL” value ([21]; 63 g ai/ha) was 10 and the “Post-emerge Herbicidal Activity CHEAL” value ([21]; 250 g ai/ha) was 50. For the same compound, the “Post-emerge Herbicidal Activity ABUTH” value ([22]; 63 g ai/ha) was 30, the “Post-emerge Herbicidal Activity ABUTH” value ([22]; 250 g ai/ha) was 90 and the “Post-emerge Herbicidal Activity CORN (crop damage)” value ([23]; 63 g ai/ha) was 0. For the same compound, the “Post-emerge Herbicidal Activity CORN (crop damage)” value ([23]; 250 g ai/ha) was 0, the “Post-emerge Herbicidal Activity RICE (crop damage)” value ([24]; 63 g ai/ha) was 0 and the “Post-emerge Herbicidal Activity RICE (crop damage)” value ([24]; 250 g ai/ha) was 0.
